Read-outs that look alike come from different tables or passages of the source.
Assays:
[1] = target: T1, human GIP receptor (hGIPR) (Homo sapiens, UniProt P48546); assay: [125I]-GIP binding, SPA with membranes of CHO cells expressing hGIPR
T1 construct: expressed in transfected cells; crude membranes
T1 sequence (P48546 22-466): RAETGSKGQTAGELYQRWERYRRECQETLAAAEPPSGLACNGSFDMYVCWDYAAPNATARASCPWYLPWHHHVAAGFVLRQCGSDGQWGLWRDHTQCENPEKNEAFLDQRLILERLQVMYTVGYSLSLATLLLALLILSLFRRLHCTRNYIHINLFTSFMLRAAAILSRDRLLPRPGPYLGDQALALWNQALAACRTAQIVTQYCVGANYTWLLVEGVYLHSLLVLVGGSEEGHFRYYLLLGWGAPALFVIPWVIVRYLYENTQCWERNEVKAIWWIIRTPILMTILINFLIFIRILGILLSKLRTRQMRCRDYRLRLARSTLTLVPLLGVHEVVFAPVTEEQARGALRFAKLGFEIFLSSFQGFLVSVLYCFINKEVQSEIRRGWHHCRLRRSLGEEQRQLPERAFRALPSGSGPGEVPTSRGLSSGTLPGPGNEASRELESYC

hGIPR = target: T2, hGIPR (Homo sapiens, UniProt P48546); assay: Functional cAMP formation (HTRF) in HEK-293 clonal cells expressing hGIPR, 0.1% bovine casein, without or with 1.0% human serum albumin; type: cell-based; details: for Emax: percent of maximal response to GIP(1-42)NH2; for EC50: cAMP, 0.1% bovine casein (no human serum albumin), geometric mean
T2 construct: expressed in transfected cells
T2 sequence (P48546 22-466): T1 sequence (P48546 22-466)
In short: (§1)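 Readings of the HTRF 665/620 nm ratio, which falls as cAMP rises, were converted to nM cAMP using a standard curve after 30 min peptide exposure at 37° C.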

hGCGR = target: T3, hGCGR (Homo sapiens, UniProt P47871); assay: Functional cAMP formation (HTRF) in HEK-293 clonal cells expressing hGCGR, 0.1% bovine casein, without or with 1.0% human serum albumin; type: cell-based; details: cAMP, 37° C.
T3 construct: expressed in transfected cells
T3 sequence (P47871 26-477): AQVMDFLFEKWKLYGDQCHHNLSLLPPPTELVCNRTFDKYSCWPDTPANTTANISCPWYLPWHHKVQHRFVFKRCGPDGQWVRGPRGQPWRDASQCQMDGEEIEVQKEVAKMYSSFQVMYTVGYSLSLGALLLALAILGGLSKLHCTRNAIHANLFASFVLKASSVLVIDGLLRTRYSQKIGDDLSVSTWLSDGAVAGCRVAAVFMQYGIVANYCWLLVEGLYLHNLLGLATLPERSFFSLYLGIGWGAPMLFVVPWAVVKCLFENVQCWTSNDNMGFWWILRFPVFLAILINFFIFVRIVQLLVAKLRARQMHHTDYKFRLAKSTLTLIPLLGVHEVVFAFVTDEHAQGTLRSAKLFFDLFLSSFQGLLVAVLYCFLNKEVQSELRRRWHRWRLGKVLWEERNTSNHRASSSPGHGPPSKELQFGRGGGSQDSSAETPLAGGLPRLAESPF
In short: as §1

hGLP-1R = hGLP-1R (Homo sapiens, UniProt P43220); assay: Functional cAMP formation (HTRF) in HEK-293 clonal cells expressing hGLP-1R, 0.1% bovine casein, without or with 1.0% human serum albumin; type: cell-based; set-up: expressed in transfected cells; details: for Emax: percent of maximal response to GLP-1(7-36)NH2; for EC50: cAMP, 0.1% bovine casein (no human serum albumin), geometric mean
hGLP-1R, sequence (P43220 24-463): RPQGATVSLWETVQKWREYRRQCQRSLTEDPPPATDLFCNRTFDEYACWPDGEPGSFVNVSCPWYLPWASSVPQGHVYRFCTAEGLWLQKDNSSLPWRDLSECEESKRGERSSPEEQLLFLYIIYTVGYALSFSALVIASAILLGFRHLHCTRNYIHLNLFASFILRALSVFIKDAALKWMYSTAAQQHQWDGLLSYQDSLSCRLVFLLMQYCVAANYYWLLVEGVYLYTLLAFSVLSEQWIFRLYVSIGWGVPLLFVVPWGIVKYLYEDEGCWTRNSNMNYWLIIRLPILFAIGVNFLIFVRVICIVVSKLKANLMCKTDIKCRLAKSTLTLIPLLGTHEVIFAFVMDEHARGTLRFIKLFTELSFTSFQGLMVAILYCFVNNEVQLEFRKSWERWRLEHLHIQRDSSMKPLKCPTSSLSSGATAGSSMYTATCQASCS
In short: as §1

Compound	Ki [1] [nM]	Emax (hGIPR; HEK293, read-out: hGIPR Emax, % ± SEM, cAMP, 37° C., 0.1% bovine casein and 1.0% human serum albumin) [%]	EC50 (hGIPR; hGIPR EC50, nM (SEM, n), 37° C.) [nM]	EC50 (hGCGR; hGCGR EC50, nM (SEM, n), 0.1% bovine casein (no human serum albumin), geometric mean) [nM]	EC50 (hGCGR; hGCGR EC50, nM (SEM, n), 0.1% bovine casein and 1.0% human serum albumin, geometric mean (SEM, n)) [nM]	Emax (hGLP-1R; HEK293, read-out: hGLP-1R Emax, % ± SEM, cAMP, 37° C., 0.1% bovine casein, arithmetic mean) [%]	EC50 (hGLP-1R; hGLP-1R EC50, nM (SEM, n), 37° C.) [nM]	Ki ([1]; human GIPR, geometric mean (SEM, n), read-out: Binding Affinity Ki, nM (SEM, n) hGIPR) [nM]	Emax (hGIPR; HEK293, cAMP, 37° C., 0.1% bovine casein and 1.0% human serum albumin, read-out: hGIPR Emax, % ± SEM) [%]	Emax (hGIPR; HEK293, cAMP, 37° C., 0.1% bovine casein, arithmetic mean, read-out: hGIPR Emax, % ± SEM) [%]	EC50 (hGIPR; 37° C., read-out: hGIPR EC50, nM (SEM, n)) [nM]	EC50 (hGCGR; 0.1% bovine casein (no human serum albumin), geometric mean, read-out: hGCGR EC50, nM (SEM, n)) [nM]	EC50 (hGCGR; 0.1% bovine casein and 1.0% human serum albumin, geometric mean (SEM, n), read-out: hGCGR EC50, nM (SEM, n)) [nM]	Emax (hGLP-1R; HEK293, cAMP, 37° C., 0.1% bovine casein and 1.0% human serum albumin, read-out: hGLP-1R Emax, % ± SEM) [%]	EC50 (hGLP-1R; 37° C., read-out: hGLP-1R EC50, nM (SEM, n)) [nM]
CC[C@H](C)[C@H](NC(=O)[C@H](CC(C)C)NC(=O)[C@](C)(Cc1ccc(O)cc1)NC(=O)[C@H](CCCCNC(=O)COCCOCCNC(=O)COCCOCCNC(=O)COCCOCCNC(=O)CC[C@H](NC(=O)CCCCCCCCCOc1ccc(C(=O)O)cc1)C(=O)O)NC(=O)[C@@H](NC(=O)[C@H](Cc1ccccc1)NC(=O)[C@H](CCC(=O)O)NC(=O)C(C)(C)NC(=O)[C@H](CCC(N)=O)NC(=O)[C@H](C)NC(=O)[C@H](CCC(N)=O)NC(=O)[C@H](CCCN)NC(=O)[C@H](CC(=O)O)NC(=O)[C@H](CC(C)C)NC(=O)[C@](C)(CC(C)C)NC(=O)[C@@H](NC(=O)C(C)(C)NC(=O)[C@H](Cc1ccncc1)NC(=O)[C@H](CC(=O)O)NC(=O)[C@H](CO)NC(=O)[C@@H](NC(=O)[C@](C)(Cc1ccccc1F)NC(=O)[C@@H](NC(=O)CNC(=O)[C@H](CCC(=O)O)NC(=O)C(C)(C)NC(=O)[C@@H](N)Cc1ccc(O)cc1)[C@@H](C)O)[C@@H](C)O)[C@@H](C)CC)[C@@H](C)CC)C(=O)N[C@@H](CCCCNC(=O)COCCOCCNC(=O)COCCOCCNC(=O)COCCOCCNC(=O)CC[C@H](NC(=O)CCCCCCCCCOc1ccc(C(=O)O)cc1)C(=O)O)C(=O)NCC(=O)NCC(=O)N1CCC[C@H]1C(=O)N[C@@H](CO)C(=O)N[C@@H](CO)C(=O)NCC(=O)N[C@@H](C)C(=O)N1CCC[C@H]1C(=O)N1CCC[C@H]1C(=O)N1CCC[C@H]1C(=O)N[C@@H](CO)C(N)=O [Example 464]	0.0261	95.5	0.00955	> 10100	> 10100	114	0.161								
CC[C@H](C)[C@H](NC(=O)[C@H](CC(C)C)NC(=O)[C@](C)(Cc1ccc(O)cc1)NC(=O)[C@@H](CCC(=O)O)NC(=O)[C@@H](NC(=O)[C@H](Cc1ccccc1)NC(=O)[C@H](CCC(=O)O)NC(=O)C(C)(C)NC(=O)[C@H](CCC(N)=O)NC(=O)[C@H](C)NC(=O)[C@H](CCCCNC(=O)COCCOCCNC(=O)CCCCCCCNC(=O)CCCCCCCCCCCCC(=O)O)NC(=O)[C@H](CCCN)NC(=O)[C@H](CC(=O)O)NC(=O)[C@H](CC(C)C)NC(=O)[C@](C)(CC(C)C)NC(=O)[C@@H](NC(=O)C(C)(C)NC(=O)[C@H](Cc1ccncc1)NC(=O)[C@H](CC(=O)O)NC(=O)[C@H](CO)NC(=O)[C@@H](NC(=O)[C@](C)(Cc1ccccc1F)NC(=O)[C@@H](NC(=O)CNC(=O)[C@H](CCC(=O)O)NC(=O)C(C)(C)NC(=O)[C@@H](N)Cc1ccc(O)cc1)[C@@H](C)O)[C@@H](C)O)[C@@H](C)CC)[C@@H](C)CC)C(=O)N[C@@H](CCCCNC(=O)COCCOCCNC(=O)CCCCCCCNC(=O)CCCCCCCCCCCCC(=O)O)C(=O)NCC(=O)NCC(=O)N1CCC[C@H]1C(=O)N[C@@H](CO)C(=O)N[C@@H](CO)C(=O)NCC(=O)N[C@@H](C)C(=O)N1CCC[C@H]1C(=O)N1CCC[C@H]1C(=O)N1CCC[C@H]1C(=O)N[C@@H](CO)C(N)=O [Example 465]								0.0464	94.4	94.9	0.0174	> 9950	> 9950	93.3	0.413

From patent US20230265151A1, “GIP/GLP1 CO-AGONIST COMPOUNDS” (priority 2020, published 2023)
